PMC11811597, “Phenomics‐Based Discovery of Novel Orthosteric Choline Kinase Inhibitors” (Angewandte Chemie (International Ed. in English), 2025)
Entries after “also recorded” stand apart in the source; their conditions may differ. Where two headings read alike, the source gives them in different places.

Columns and labels:
CHKA = CHKA (Homo sapiens, UniProt P35790); assay: Competitive affinity-based chemoproteomics (UNC0965 matrix), PBMC cell extract; type: binding; parameters: endogenous in cells; details: 20 µM competitor
Chain of CHKA (P35790 whole entry): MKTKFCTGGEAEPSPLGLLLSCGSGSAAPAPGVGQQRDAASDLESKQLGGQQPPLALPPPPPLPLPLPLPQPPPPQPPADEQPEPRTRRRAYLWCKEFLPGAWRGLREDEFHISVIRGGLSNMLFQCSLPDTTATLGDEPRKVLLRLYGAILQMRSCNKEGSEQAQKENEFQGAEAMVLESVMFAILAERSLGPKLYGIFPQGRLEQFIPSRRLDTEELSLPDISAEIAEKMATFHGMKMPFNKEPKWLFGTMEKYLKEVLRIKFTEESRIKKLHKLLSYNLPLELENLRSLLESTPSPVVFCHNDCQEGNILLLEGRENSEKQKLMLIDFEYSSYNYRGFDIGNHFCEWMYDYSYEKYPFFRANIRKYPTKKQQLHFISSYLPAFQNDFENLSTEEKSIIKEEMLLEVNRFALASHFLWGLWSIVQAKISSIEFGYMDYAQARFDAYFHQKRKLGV
Procedure: (§1) described.[2] Lysates were precleared with bead slurry (100 μL) for 30 min at 4 °C and then treated with UNC0638 or UNC0737 (20 μM) or DMSO control for 30 min at 4 °C followed by incubation with affinity matrix for 2 h at 4 °C. Affinity matrices were washed with buffer A (5 mL) and proteins eluted with 100 μL of 2x Laemmli sample buffer, 100 mM DTT, in PBS and heating for 10 min at 90 °C.
(§2) Eluents (70 µL) were diluted in 0.1 M Tris (pH 7.8) to 200 µL, reduced with 5 mM DTT for 30 min at RT, and alkylated with 20 mM iodoacetamide for 30 min at RT in the dark. Proteins were precipitated by sequential addition of MeOH (600 µL), CHCl3 (150 µL) and H2O (450 µL), pelleted (17,000 × g, 5 min), washed with further MeOH (2 × 600 µL), and re-pelleted. Air dried pellets were resuspended in 50 μL 6 M urea (pH 7.8) by vortexing and then diluted with 250 μL H2O before adding 1 µg trypsin for overnight incubation at 37 °C. The digests were acidified with FA (1% v/v final concentration), desalted using SOLA HRP SPE Cartridges (Thermo Fisher), eluted with 69% v/v MeCN, 0.1% v/v FA in H2O (600 μL) and dried in vacuo. Dried peptides were stored at -20 °C before resuspension in 2% v/v MeCN, 0.1% v/v FA in H2O (20 μL) for LC-MS/MS analysis.
(§3) LC-MS/MS Data Acquisition
Digested samples were analysed by nano-UPLC–MS/MS using a Dionex Ultimate 3000 nano UPLC fitted with an EASY spray column (75 μm × 500 mm, 2 μm particle size, Thermo Scientific), coupled to an Orbitrap Q Exactive instrument. […]
Raw data was processed using MaxQuant[3] version 2.0.1.0 and the reference complete human proteome FASTA file (UniProt, downloaded 05.08.21). Label Free Quantification (LFQ) and Match Between Runs were selected; Cysteine carbamidomethylation was selected as a fixed modification, and methionine oxidation and asparagine deamidation as variable modifications. Default settings for identification and quantification were used. […]
(§4) mode selected for both identification and quantification of proteins (razor peptides are uniquely assigned to protein groups and not to individual proteins).

JUP = target: T1, JUP (Homo sapiens, UniProt P14923); assay: as above; type: binding; details: 20 µM competitor, n=2
T1 construct: endogenous in cells; host or cells: PBMC from healthy blood donors, cell extract
T1 sequence (P14923 whole entry): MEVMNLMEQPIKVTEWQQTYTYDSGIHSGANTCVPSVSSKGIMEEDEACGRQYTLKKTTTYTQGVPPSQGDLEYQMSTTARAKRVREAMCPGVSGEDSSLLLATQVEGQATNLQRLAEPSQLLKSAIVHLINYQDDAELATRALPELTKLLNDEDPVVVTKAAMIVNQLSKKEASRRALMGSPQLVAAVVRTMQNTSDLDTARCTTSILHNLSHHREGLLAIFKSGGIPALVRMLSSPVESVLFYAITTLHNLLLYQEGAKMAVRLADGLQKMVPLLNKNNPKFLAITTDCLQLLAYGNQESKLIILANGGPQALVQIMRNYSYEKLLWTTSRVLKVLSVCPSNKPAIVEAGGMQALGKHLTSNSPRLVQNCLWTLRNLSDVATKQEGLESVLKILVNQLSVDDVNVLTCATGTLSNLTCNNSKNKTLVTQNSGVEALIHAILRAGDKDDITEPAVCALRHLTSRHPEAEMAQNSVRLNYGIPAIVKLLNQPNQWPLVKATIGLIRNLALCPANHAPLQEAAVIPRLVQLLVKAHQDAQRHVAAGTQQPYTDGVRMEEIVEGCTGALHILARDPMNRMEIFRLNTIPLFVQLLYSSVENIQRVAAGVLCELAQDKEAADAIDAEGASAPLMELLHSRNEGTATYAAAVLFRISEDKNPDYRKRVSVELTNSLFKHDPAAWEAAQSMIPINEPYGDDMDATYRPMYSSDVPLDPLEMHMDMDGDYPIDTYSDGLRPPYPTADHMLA
Procedure: as §1, §2, §3
(§5) Digested samples were analysed by nano-UPLC–MS/MS using a Dionex Ultimate 3000 nano UPLC fitted with an EASY spray column (75 μm × 500 mm, 2 μm particle size, Thermo Scientific), coupled to an Orbitrap Q Exactive instrument. A 60 min gradient of 0.1% (v/v) formic acid in 5 % (v/v) DMSO to 0.1% (v/v) formic acid with 35% (v/v) acetonitrile in 5 % (v/v) DMSO at a flow rate of 250 nL min−1 was used. The instrument was operated in a data-dependant mode, with survey scans acquired at a resolution of 70,000 at 200 m/z and the 15 most abundant precursors selected for HCD fragmentation with an AGC target of […] ions.
(§6) Raw data was processed using MaxQuant[3] version 2.0.1.0 and the reference complete human proteome FASTA file (UniProt, downloaded 05.08.21). Label Free Quantification (LFQ) and Match Between Runs were selected; Cysteine carbamidomethylation was selected as a fixed modification, and methionine oxidation and asparagine deamidation as variable modifications. Default settings for identification and quantification were used. Specifically, a minimum peptide length of 7, a maximum of 2 missed cleavage sites, and a maximum of 5 labelled amino acids per peptide were allowed.
Through selection of the ‘trypsin/P’ general setting, peptide bond cleavage at arginine or lysine (followed by any amino acid) was considered during in silico digest of the reference proteome. The allowed precursor and fragment ion mass tolerances were 4.5 ppm and 20 ppm, respectively. Peptides and proteins were identified utilizing a 0.01 false discovery rate, with “unique and razor peptides” […]
as §4

PRCP = assay: as above; type: binding, human; details: 20 µM competitor, n=2
Procedure: as §1, §2, §3, §5, §6
(§7) Through selection of the ‘trypsin/P’ general setting, peptide bond cleavage at arginine or lysine (followed by any amino acid) was considered during in silico digest of the reference proteome. […]
as §4

PWP1 = assay: as above; type: binding, human; details: 20 µM competitor, n=2
Procedure: as §1, §2, §3, §5, §6, §7, §4

[1] = system: choline metabolism in MCF7 cells; assay: NMR choline metabolite analysis; type: cell-based, human; details: for extracellular choline uptake: dose-dependent
Procedure: NMR Choline Metabolite Analysis
Sample preparation for the quantification of metabolites by nuclear magnetic resonance (NMR) spectroscopy was performed as described previously.[13] Briefly, 0.3 mL of cell culture medium (conditioned medium) was collected from each sample and mixed with 2 volumes of pre-chilled methanol (< -70 °C), vortexed for 30 s and placed on dry ice for at least 30 min. Following centrifugation for 20 min at 18100 × g and 0 °C, the supernatant extract of culture medium was dried and stored until NMR analysis. The remaining culture medium from each sample was discarded and cells were washed once with PBS (37 °C), and quenched with liquid nitrogen. Polar metabolites were extracted with 1.4 mL of an ice-cold solution of 67.5:7.5:25 (v/v/v) of methanol/chloroform/water.
Samples were centrifuged at 18100 × g for 15 min at 0 °C and the supernatant consisted of intracellular polar metabolites was collected and dried under nitrogen gas stream. The remaining cell pellets were used for protein mass quantification using the Pierce™ BCA Protein Assay Kit (Thermo Scientific™).
Samples from both cell culture medium and cell extracts were reconstituted in 220 µL of 50 mM phosphate buffer (pH 7.4) solution in deuterated water containing 0.05 mM trimethylsilyl propionic-d4-sodium salt (TSP-d4, Cambridge Isotope Laboratories, Inc.) as internal standard used for NMR referencing and quantification. One NMR experiment (pulse sequence: noesygppr1d; Bruker Biospin) was collected for each sample in a 14.1 T (600 MHz for 1H) Bruker Avance Neo NMR. All recorded NMR spectra were imported in Chenomx NMR suite 9.0 (Chenomx NMR suite, v9.0) for the quantification of choline, phosphocholine sn-glycero-phosphocholine (GPC) and betaine. Quantitative data (nmoles or μM) were then normalized to the amount of total protein mass (mg) of each sample. […]

Row | Compound | competition for CHKA binding to affinity matrix (CHKA) | FC vs DMSO (log2 competition), JUP (JUP) | FC vs DMSO (log2 competition), PRCP (PRCP) | FC vs DMSO (log2 competition), PWP1 (PWP1) | betaine [1] | intracellular choline levels [1] | phosphocholine (pCho) formation/levels relative to control [1] | sn‐glycerophosphocholine (GPC) [1] | extracellular choline uptake [1] | phosphocholine (pCho) formation/levels relative to control ([1]; listed as UN0737)
1 | COc1cc2c(NC3CCN(C(C)C)CC3)nc(C3CCCCC3)nc2cc1OCCCN1CCCC1 [UNC0638] | sole shared target | -1.79 | -3.268 | -2.002 | did not observe changes | not significantly affected | reduction of pCho formation; also recorded: significantly reduced | not significantly affected | decrease in extracellular choline uptake | 
2 | COc1cc2c(N(C)C3CCN(C(C)C)CC3)nc(C3CCCCC3)nc2cc1OCCCN1CCCC1 [UNC0737] | sole shared target; also recorded: reduced stronger | -0.7174 | -0.4338 | -0.1275 | did not observe changes | not significantly affected | reduction of pCho formation | not significantly affected | decrease in extracellular choline uptake | significantly reduced
